Experimental data as given in patent publication US20060166969A1, “AMPA antagonists for the treatment of dizziness, including vertigo and Meniere's disorder” (priority 2005, published 2006).

Assays:
[1] = test system: dizziness, including vertigo and Menière's disorder; experiment: Animal models for dizziness, including vertigo and Menière's disorder; format: in vivo; details: animal models not specified; no data given
Description: Animal models for dizziness, vertigo and Menière's disorder include, but are not limited
Electronystagmography in rats (see Fischer, A. J. et al., “Electronystagmography in the laboratory rat”, Acta Otolaryngol., 88, 412-419,1979).
Gentamycin induced nystagmus in guinea pigs (see Okuda, T. et al., “Inner ear changes with intracochlear gentamicin administration in Guinea pigs”, Laryngoscope, 114, 694-697, 2004).
Unilateral peripheral vestibular deafferentation in guinea pigs (see Dutia, M. B. et al., “The opioid receptor antagonist, naloxone, enhances ocular motor compensation in guinea pig following peripheral vestibular deafferentation”, Exp. Neurol., 141,141-144,1996), or rats (see Guilding, C. et al., “11-Beta-hydroxysteroid dehydrogenase type 1 activity in medial vestibular nucleus and cerebellum after unilateral vestibular deafferentation in the rat”, Stress, 7(2),127-130, 2004).
Unilateral labyrinthectomy in rats (see Johnston, A. R. et al., “Differential regulation of GABA(A) and GABA(B) receptors during vestibular compensation”, Neuroreport.;12(3), 597-600, 2001; and Inoue, S. et al., “Glutamate release in the rat medial vestibular nucleus following unilateral labyrinthectomy using in vivo microdialysis”, Brain Res., 991(1-2), 78-83, 2003). […]

[2] = test system: AMPA receptors; details: qualitative statement; affinity for AMPA receptors said to have been published; cited from earlier work

**Q.** Which “activity in animal models for dizziness, including vertigo and Menière's disorder” value [1] does the source give for `Cc1nc2n(c1C)N=C(c1ccccc1)c1cc3c(cc1C2)OCO3` [8,9-dimethyl-5-phenyl-11H-1,3-dioxolo[4,5-h]imidazo[1,2-c][2,3]benzo-diazepine] here?
**A.** The value was “active”.

**Q.** And the “AMPA receptor antagonistic activity” value [2]?
**A.** The value was “AMPA receptor antagonistic activity”.
